Measurements reported in ChEMBL document CHEMBL1201862, “PubChem BioAssay data set” (2004).
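These data come from cells grown in 96-well plates and exposed to compound for 48 hours at five concentrations. GI50: concentration for 50% inhibition of growth.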 Activity calls are given as the source filed them. No stated cut-off is given here; in the data, active = GI50 up to about 1.1 µM and inactive = higher.

What was measured:
Assay in all cases: inhibition of tumour cell growth, NCI panel, 48 h
HCC 2998 = tested on: HCC 2998
IGROV-1 = tested on: IGROV-1
NCI-H23 = tested on: NCI-H23
UO-31 = tested on: UO-31
KM12 = tested on: KM12
SNB-75 = tested on: SNB-75
HL-60 = tested on: HL-60
A549 = tested on: A549
MOLT-4 = tested on: MOLT-4
RPMI-8226 = tested on: RPMI-8226
NCI-H226 = tested on: NCI-H226
OVCAR-3 = tested on: OVCAR-3
786-0 = tested on: 786-0
K562 = tested on: K562
SN12C = tested on: SN12C
TK-10 = tested on: TK-10
SK-MEL-5 = tested on: SK-MEL-5

Measured: GI50

CC(=O)c1ccccc1NC(=O)C(=O)C(C(=O)c1ccccc1-c1ccccc1)C1OC(=O)c2ccccc21 (stereo not given)
inactive: HCC 2998 16.2 µM | IGROV-1 22.2 µM | NCI-H23 16.5 µM | UO-31 18.2 µM | KM12 18 µM | SNB-75 25.5 µM | HL-60 23.9 µM | A549 25.5 µM | MOLT-4 24.8 µM | RPMI-8226 27.3 µM | NCI-H226 14.9 µM | OVCAR-3 20.7 µM | 786-0 18.6 µM | K562 25.3 µM | SN12C 17.1 µM | TK-10 14.9 µM | SK-MEL-5 19.1 µM

CC(=O)C1=NN(c2ccccc2)C2(S1)SC(c1ccccc1)(c1ccccc1)c1ccccc12 (stereo not given)
inactive: HCC 2998 > 100 µM | IGROV-1 33.1 µM | NCI-H23 27.2 µM | UO-31 > 100 µM | KM12 74.5 µM | SNB-75 19.3 µM | HL-60 19.9 µM | A549 36.7 µM | MOLT-4 27.8 µM | RPMI-8226 44.1 µM | NCI-H226 16.1 µM | OVCAR-3 51.3 µM | 786-0 34.5 µM | K562 32.4 µM | SN12C > 100 µM | TK-10 63.7 µM

COC(=O)CC(NC(=O)OCc1ccccc1)C(C(=O)OCc1ccccc1)C(C)(OC)OC (stereo not given)
inactive: HCC 2998 38 µM | IGROV-1 19.6 µM | NCI-H23 17.4 µM | UO-31 14.6 µM | SNB-75 16.4 µM | HL-60 15.1 µM | A549 17.3 µM | MOLT-4 5.94 µM | RPMI-8226 10 µM | NCI-H226 22.6 µM | OVCAR-3 21.3 µM | 786-0 33.3 µM | K562 10.6 µM | SN12C 30.5 µM | TK-10 39.2 µM | SK-MEL-5 12.4 µM

COC(=O)C1CCc2nnc(-c3cccnc3)n21 (stereo not given)
inactive: HCC 2998 > 100 µM | IGROV-1 > 100 µM | UO-31 > 100 µM | KM12 > 100 µM | SNB-75 > 100 µM | HL-60 > 100 µM | A549 > 100 µM | MOLT-4 > 100 µM | RPMI-8226 > 100 µM | NCI-H226 > 100 µM | OVCAR-3 > 100 µM | 786-0 > 100 µM | K562 > 100 µM | SN12C > 100 µM | TK-10 > 100 µM | SK-MEL-5 > 100 µM

O=CC[C@H]1C(=O)C[C@@H]2CCC[C@@H]21
inactive: HCC 2998 > 100 µM | IGROV-1 > 100 µM | NCI-H23 43.7 µM | KM12 51.8 µM | SNB-75 64.4 µM | HL-60 32.1 µM | A549 > 100 µM | MOLT-4 43.4 µM | RPMI-8226 42.4 µM | NCI-H226 80.4 µM | OVCAR-3 47.6 µM | 786-0 > 100 µM | K562 34.2 µM | SN12C 92.3 µM | TK-10 > 100 µM | SK-MEL-5 33.5 µM

COc1ccc(N2C(=O)C3c4[nH]c5ccccc5c4C4CC(C)(C)CC(C)(C)C4C3C2=O)cc1 (stereo not given)
inactive: HCC 2998 33.6 µM | IGROV-1 22.9 µM | NCI-H23 13.8 µM | UO-31 26 µM | SNB-75 16.8 µM | HL-60 42.5 µM | A549 13.2 µM | MOLT-4 14.4 µM | RPMI-8226 31.8 µM | NCI-H226 14 µM | 786-0 12.9 µM | K562 44.5 µM | SN12C 16 µM | SK-MEL-5 19.4 µM

Cc1ccc(NC(=O)C(=O)Cc2cccc[n+]2[O-])cc1C
inactive: HCC 2998 > 100 µM | IGROV-1 > 100 µM | NCI-H23 > 100 µM | UO-31 > 100 µM | KM12 > 100 µM | SNB-75 > 100 µM | HL-60 > 100 µM | A549 > 100 µM | MOLT-4 > 100 µM | RPMI-8226 > 100 µM | NCI-H226 > 100 µM | OVCAR-3 > 100 µM | 786-0 > 100 µM | K562 > 100 µM | SN12C > 100 µM | TK-10 > 100 µM | SK-MEL-5 > 100 µM

Brc1ccc(C[P+]2(c3ccccc3)CCCCC2)cc1.[O-][Cl+3]([O-])([O-])[O-]
inactive: HCC 2998 36.9 µM | IGROV-1 81.3 µM | NCI-H23 96.2 µM | UO-31 > 100 µM | KM12 56.1 µM | SNB-75 26.2 µM | HL-60 20.4 µM | A549 > 100 µM | MOLT-4 > 100 µM | RPMI-8226 25.8 µM | NCI-H226 > 100 µM | OVCAR-3 43.6 µM | 786-0 > 100 µM | K562 77.4 µM | SN12C > 100 µM | TK-10 99.5 µM | SK-MEL-5 17.5 µM

N#CCCN(c1ccc(/C=N/c2ccc(C(=O)O)cc2)cc1)S(=O)(=O)c1ccccc1
inactive: HCC 2998 > 100 µM | IGROV-1 > 100 µM | NCI-H23 > 100 µM | UO-31 > 100 µM | KM12 > 100 µM | SNB-75 > 100 µM | HL-60 41.4 µM | A549 > 100 µM | MOLT-4 > 100 µM | RPMI-8226 > 100 µM | NCI-H226 > 100 µM | OVCAR-3 > 100 µM | 786-0 > 100 µM | K562 > 100 µM | SN12C > 100 µM | TK-10 > 100 µM | SK-MEL-5 > 100 µM

CCOC(=O)/N=c1/nc(N(C)C)ss1
inactive: HCC 2998 > 100 µM | IGROV-1 > 100 µM | NCI-H23 > 100 µM | UO-31 > 100 µM | KM12 > 100 µM | SNB-75 > 100 µM | HL-60 > 100 µM | A549 > 100 µM | MOLT-4 > 100 µM | RPMI-8226 > 100 µM | NCI-H226 30.3 µM | 786-0 > 100 µM | K562 > 100 µM | SN12C > 100 µM | TK-10 > 100 µM | SK-MEL-5 > 100 µM

CC(=O)Nc1ccc(S(=O)(=O)N/N=C(\C)CN2C(=O)c3ccccc3C2=O)cc1
inactive: HCC 2998 > 100 µM | IGROV-1 > 100 µM | NCI-H23 > 100 µM | UO-31 > 100 µM | KM12 > 100 µM | SNB-75 75.5 µM | HL-60 > 100 µM | A549 > 100 µM | MOLT-4 > 100 µM | RPMI-8226 > 100 µM | NCI-H226 > 100 µM | OVCAR-3 > 100 µM | 786-0 > 100 µM | K562 > 100 µM | SN12C 55.2 µM | TK-10 > 100 µM | SK-MEL-5 > 100 µM

O=C1C=C(Nc2ccc(Cl)cc2Cl)c2ccccc2C1=O
inactive: HCC 2998 54.6 µM | IGROV-1 50.9 µM | NCI-H23 21.7 µM | UO-31 43.1 µM | KM12 66.5 µM | SNB-75 22.4 µM | HL-60 28.7 µM | A549 28.5 µM | MOLT-4 88.1 µM | RPMI-8226 46.5 µM | NCI-H226 28.5 µM | OVCAR-3 28.4 µM | 786-0 78.5 µM | K562 31.3 µM | SN12C 57.1 µM | TK-10 24.7 µM
